Paper PMC8703317, “2-(Piperidin-4-yl)acetamides as Potent Inhibitors of Soluble Epoxide Hydrolase with Anti-Inflammatory Activity” (Pharmaceuticals, 2021)

How the values were obtained:
[1] = molecular target: T1, murine sEH (Mus musculus, UniProt P34914); assay: fluorescent-based sEH inhibition assay, recombinant mouse sEH; type: biochemical; conditions: baculovirus expressed recombinant mouse sEH, average of three replicates
T1 construct: made in house; host or cells: baculovirus expression system (insect cells implied)
T1 sequence (P34914 1-554): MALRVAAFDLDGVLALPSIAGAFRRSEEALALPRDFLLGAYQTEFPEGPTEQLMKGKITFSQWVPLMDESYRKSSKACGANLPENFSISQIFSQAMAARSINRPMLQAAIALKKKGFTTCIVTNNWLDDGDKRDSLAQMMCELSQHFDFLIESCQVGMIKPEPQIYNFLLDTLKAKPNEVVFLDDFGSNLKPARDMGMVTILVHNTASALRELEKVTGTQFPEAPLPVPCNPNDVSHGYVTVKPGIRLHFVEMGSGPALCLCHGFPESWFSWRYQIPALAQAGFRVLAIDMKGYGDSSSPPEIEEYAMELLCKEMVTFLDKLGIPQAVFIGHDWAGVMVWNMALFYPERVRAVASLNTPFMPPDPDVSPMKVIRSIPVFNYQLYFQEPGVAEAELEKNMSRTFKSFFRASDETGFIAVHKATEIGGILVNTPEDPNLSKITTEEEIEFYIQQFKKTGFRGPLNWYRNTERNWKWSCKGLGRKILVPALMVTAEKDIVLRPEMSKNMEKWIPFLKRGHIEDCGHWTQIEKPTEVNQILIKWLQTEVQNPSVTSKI
Method: The potency of all the new compounds as inhibitors of the human and murine sEH was tested using a previously reported sensitive fluorescent-based assay using baculovirus expressed recombinant human and mouse sEH [28].

[2] = microsomal stability, human microsomes; type: in vitro ADME; conditions: pooled human microsomes, pH 7.4; 60 min incubation with human microsomes, NADPH, 37 °C
Method: (§1) The human and murine pooled microsomes employed were purchased from Tebu-Xenotech (Barcelona, Spain). The compound was incubated at 37 °C with the microsomes in a 50 mM phosphate buffer (pH = 7.4) containing 3 mM MgCl2, 1 mM NADP, 10 mM glucose-6-phosphate and 1 U/mL glucose-6-phosphate-dehydrogenase. Samples (75 µL) were taken from each well at 0, 10, 20, 40 and 60 min and transferred to a plate containing 4 °C 75 µL acetonitrile and 30 µL of 0.5% formic acid in water were added for improving the chromatographic conditions. The plate was centrifuged (46000 g, 30 min) and supernatants were taken and analyzed in a UPLC-MS/MS (Xevo-TQD, Waters) by employing a BEH C18 column and an isocratic gradient of 0.1% formic acid in water: 0.1% formic acid acetonitrile (60:40). The metabolic stability of the compounds was calculated from the logarithm of the remaining compounds at each of the time points studied.

[3] = microsomal stability, mouse microsomes; type: in vitro ADME; conditions: pooled murine microsomes, pH 7.4; 60 min incubation with mouse microsomes, NADPH, 37 °C
Method: as §1

[4] = system: SH-SY5Y neuroblastoma cells; assay: cytotoxicity by propidium iodide staining in SH-SY5Y cells; type: cell-based; conditions: 24 h incubation, up to 100 µM (highest concentration tested), vehicle DMSO 0.1%, n = 10–12
Method: Cytotoxicity was evaluated in the human neuroblastoma SH-SY5Y cell line (ATCC Number: CRL-2266). Cells were cultured in minimum essential medium/HAM’s-F12 (1:1, v/v) medium, supplemented with non-essential amino acids, L-glutamine 1 mM, gentamycin 50 µM and 10% heat inactivated fetal bovine serum (FBS). For experiments, the cells were seeded at 3 × 10^5 cells/mL (100 µL/well) in 96-well plates. […] DMSO 0.1% was used as vehicle. Treated cultures were returned to the incubator for a 24 h test exposure. One hour before termination, cell death was measured by PI staining. Briefly, PI (Molecular Probes) at the final concentration of 7.5 µg/mL was added to the cells and incubated for 1 h. PI enters into cells with damaged membrane and binds to DNA yielding intense red fluorescence. Fluorescence was measured in a SAFAS FLX-Xenius microplate reader (Monaco) at 530 nm excitation and 645 nm emission. Percentage of cell death for a given fluorescence value (Ft) was calculated according to the values given by Triton X100 killed cells (Fmax; 100% cell death) and vehicle treated cells (Fmin; 0% cell death) [% = ((Ft-Fmin)/(Fmax-Fmin)) × 100]. Each treatment was assayed in 3–4 wells per experiment and the experiment was repeated 3 times in cultures of different cell passages. Data were analyzed by ANOVA.

[5] = system: microglial BV2 cells activated with LPS; assay: nitric oxide generation (nitrite, Griess) in LPS-activated BV2 microglial cells; type: cell-based; conditions: LPS 0.1 or 1 μg/mL, 24 h
Method: Inflammatory changes were determined by the measure of nitric oxide generation, as the endpoint of iNOS activation, in microglial BV2 cells. BV2 cells (HyperCLDB, Banca Biologica e Cell Factory, ICLC ATL 03001) were grown in RPMI 1640 medium, supplemented with L-glutamine 2 mM, gentamycin 50 µM and 10% FBS. For experiments, cells were seeded in 96-well plates at 2 × 10^5 cells/mL, 100 µL/well. […] After 1 h of incubation, the cells were treated with the pro-inflammatory chemical LPS (0.1 μg/mL or 1 μg/mL; strain E. coli […], Sigma-Aldrich, L-2654, batch #120M4028) and further incubated for 24 h. TPPU at 100 µM was also assayed as a reference anti-inflammatory compound. DMSO 0.1% was used as vehicle. Cells were maintained at 37 °C in a humidified incubator with 5% CO2 throughout the procedures. Nitric oxide released to the culture medium was measured by the colorimetric Griess reaction that detects nitrite (NO2^–), a stable reaction product of nitric oxide and molecular oxygen. Briefly, 50 µL of conditioned medium were incubated with 50 µL of Griess reagent for 10 min at room temperature. Optical density was measured at 540 nm. Nitrite concentration was determined from a sodium nitrite standard curve. Results were normalized by cell protein content in the well and expressed as a percentage of the average maximal values given by the pro-inflammatory agent (LPS 1 µg/mL). Each treatment was performed in 3–5 wells and the whole experiment was repeated 3–4 times in cultures of different cell passage. Data were analyzed by ANOVA followed by Tukey’s multiple comparisons test.

In the case of `O=C(CC1CCN(c2ccc(C(=O)O)cc2)CC1)NC12CC3CC(F)(CC(C1)c1ccccc13)C2` [10c, 4-(4-(2-((9-Fluoro-5,6,8,9,10,11-hexahydro-7H-5,9:7,11-dimethanobenzo[9]annulen-7-yl)amino)-2-oxoethyl)piperidin-1-yl)benzoic Acid], the IC50 [1] is reported as 0.7 nM, the remaining at 1 h [2] is reported as 60% and the remaining at 1 h [3] is reported as 29%. For the same compound, the “cytotoxicity, percentage of cell death (PI staining)” value [4] was “no cytotoxicity”, the “nitric oxide generation (nitrite levels) in presence of LPS” value ([5]; compound at 50 µM) was “indistinguishable from control levels” and the “nitric oxide generation (nitrite levels) in presence of LPS” value ([5]; compound at 100 µM) was “indistinguishable from control levels”.
